# Measured values: US20250320206A1, “STAT6 DEGRADERS” (Gilead Sciences, Inc., priority 2024, published 2025)
# Tests used:
# [1] = tested on: Eotaxin-3 release in human whole blood stimulated with IL-4; assay: Human Whole Blood Eotaxin-3 Assay (IL-4 stimulated eotaxin-3 release); type: cell-based; conditions: IL-4 stimulation, 48 h, values given for compounds with >80% Emax, geometric mean
# Outline: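 Lithium-heparin human whole blood preincubated 2 h at 37° C with 4-fold serially diluted compounds (0.5% DMSO), then stimulated with recombinant human IL-4 ([…]) for 48 h. Eotaxin-3 (CCL26) in supernatant quantified by MSD immunoassay.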
# STAT6 = target: T1, STAT6 (Homo sapiens, UniProt P42226); assay: Stat6 Degrader Assay (HiBiT based, HeLa LgBiT clone 4.14); type: cell-based; conditions: HeLa LgBiT clone 4.14 HiBiT-STAT6, 4-24 h incubation; values given for compounds with >80% Emax; geometric mean; read-out: STAT6 degradation DC50
# T1 construct: These cells express endogenous STAT6; host or cells: HeLa LgBiT clone 4.14
# T1 sequence (P42226 1-847): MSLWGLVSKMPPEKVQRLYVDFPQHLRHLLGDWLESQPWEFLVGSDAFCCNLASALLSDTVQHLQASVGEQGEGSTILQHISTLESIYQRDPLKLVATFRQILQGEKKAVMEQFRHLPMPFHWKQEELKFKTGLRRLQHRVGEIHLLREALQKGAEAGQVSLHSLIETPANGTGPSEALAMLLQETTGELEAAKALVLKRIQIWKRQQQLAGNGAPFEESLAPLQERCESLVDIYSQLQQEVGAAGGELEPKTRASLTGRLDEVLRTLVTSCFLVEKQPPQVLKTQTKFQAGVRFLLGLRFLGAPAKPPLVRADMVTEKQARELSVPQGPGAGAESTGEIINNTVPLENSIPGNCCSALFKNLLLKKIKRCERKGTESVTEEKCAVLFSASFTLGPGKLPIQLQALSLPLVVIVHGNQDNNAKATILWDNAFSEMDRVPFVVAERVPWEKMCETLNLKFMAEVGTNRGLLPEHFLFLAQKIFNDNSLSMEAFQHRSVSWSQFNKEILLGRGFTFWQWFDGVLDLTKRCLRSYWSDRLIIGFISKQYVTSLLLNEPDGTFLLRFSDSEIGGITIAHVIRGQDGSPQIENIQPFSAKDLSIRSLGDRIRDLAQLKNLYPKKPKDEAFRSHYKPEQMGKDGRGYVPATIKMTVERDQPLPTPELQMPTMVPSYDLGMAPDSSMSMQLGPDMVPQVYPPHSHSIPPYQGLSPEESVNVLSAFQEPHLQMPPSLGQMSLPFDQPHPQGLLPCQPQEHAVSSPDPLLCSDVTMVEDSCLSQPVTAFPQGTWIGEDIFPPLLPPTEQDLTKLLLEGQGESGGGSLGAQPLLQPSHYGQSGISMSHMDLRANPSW
# Outline: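 HeLa LgBiT clone 4.14 cells with CRISPR HiBiT-tagged endogenous STAT6, 5000 cells/well, compound dosed then incubated 4-24 h at 37° C, 5% CO2. Nano-Glo substrate added, 0.5 h, luminescence read as non-degraded STAT6. Terfenadine 50 μM (cell kill) defines 100% degradation.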
Structure (SMILES),EC50 [1] [nM],DC50 (STAT6) [nM]
"CNc1cc(=O)n(-c2ccnc3c2cc([C@H](C)N2CC=C(c4c(C)cc(C(=O)N5CC=C(CC6CCN(c7ccc8c(c7)C7(CC7)C(=O)N8C7CCC(=O)NC7=O)CC6)CC5)cc4F)CC2)n3C)cc1F (stereo partly drawn) [Example 3u20, 3-(5′-(4-((1-(3-fluoro-4-(1-((S)-1-(4-(5-fluoro-4-(methylamino)-2-oxopyridin-1 (2H)-yl)-1-methyl-1H-pyrrolo[2,3-b]pyridin-2-yl)ethyl)-1,2,3,6-tetrahydropyridin-4-yl)-5-methyl-benzoyl)-1,2,3,6-tetrahydropyridin-4-yl)methyl)piperidin-1-yl)-2′-oxospiro[cyclopropane-1,3′-indolin]-1′-yl)piperidine-2,6-dione]",11.7,4.7
"CNc1ccn(-c2ccnc3c2cc([C@H](C)N2CC=C(c4c(C)cc(C(=O)N5CCC(CN6CCN(Cc7ccc8c(c7)n(C)c(=O)n8C7CCC(=O)NC7=O)CC6)CC5)cc4F)CC2)n3C)c(=O)c1 (stereo partly drawn) [Example 3u155, 3-(5-((4-((1-(3-fluoro-5-methyl-4-(1-((S)-1-(1-methyl-4-(4-(methylamino)-2-oxopyridin-1 (2H)-yl)-1H-pyrrolo[2,3-b]pyridin-2-yl)ethyl)-1,2,3,6-tetrahydropyridin-4-yl)benzoyl)piperidin-4-yl)methyl)piperazin-1-yl)methyl)-3-methyl-2-oxo-2,3-dihydro-1H-benzo[d]imidazol-1-yl)piperidine-2,6-dione]",0.5,0.3
"CNc1cc(=O)n(-c2ccnc3c2cc([C@H](C)N2CC=C(c4c(F)cc(C(=O)N5CCC(CN6CCN(Cc7ccc8c(c7)n(C)c(=O)n8[C@@H]7CCC(=O)NC7=O)CC6)CC5)cc4F)CC2)n3C)cc1F (single isomer, unassigned) [Example 3u53]",1.1,8.7
"CNc1ccn(-c2ccnc3c2cc(CN2CCC(c4c(F)cc(C(=O)N5CCC(CN6CCN(Cc7ccc8c(c7)C(C)(C)C(=O)N8[C@@H]7CCC(=O)NC7=O)CC6)CC5)cc4F)CC2)n3C)c(=O)c1 (single isomer, unassigned) [Example 3u18]",18.6,8.4
"CNc1nc(=O)n(-c2ccnc3c2cc(CN2CCC(c4c(F)cc(C(=O)N5CCC(CN6CCN(Cc7ccc8c(c7)C7(CC7)C(=O)N8C7CCC(=O)NC7=O)C[C@@H]6C)CC5)cc4F)CC2)n3C)cc1F (stereo partly drawn) [Example 3h10, 3-(5′-(((S)-4-((1-(3,5-difluoro-4-(1-((4-(5-fluoro-4-(methylamino)-2-oxopyrimidin-1 (2H)-yl)-1-methyl-1H-pyrrolo[2,3-b]pyridin-2-yl)methyl)piperidin-4-yl)benzoyl)piperidin-4-yl)methyl)-3-methylpiperazin-1-yl)methyl)-2′-oxospiro[cyclopropane-1,3′-indolin]-1′-yl)piperidine-2,6-dione]",4.8,3.2
"CNc1cc(=O)n(-c2ccnc3c2cc(CN2CC=C(c4c(F)cc(C(=O)N5CCC(CN6CCN(Cc7ccc8c(c7)C(C)(C)C(=O)N8[C@@H]7CCC(=O)NC7=O)C[C@@H]6C)CC5)cc4F)CC2)n3C)cc1F (single isomer, unassigned) [Example 3u79]",107,15.4
"Cc1cc(C(=O)N2CCC(CN3CCN(Cc4ccc5c(c4)C4(CC4)C(=O)N5C4CCC(=O)NC4=O)C[C@@H]3C)CC2)cc(F)c1C1=CCN([C@@H](C)c2cc3c(-n4cc(F)c(N)c(F)c4=O)ccnc3n2C)CC1 (stereo partly drawn) [Example 3u121, 3-(5′-(((S)-4-((1-(4-(1-((S)-1-(4-(4-amino-3,5-difluoro-2-oxopyridin-1 (2H)-yl)-1-methyl-1H-pyrrolo[2,3-b]pyridin-2-yl)ethyl)-1,2,3,6-tetrahydropyridin-4-yl)-3-fluoro-5-methyl-benzoyl)piperidin-4-yl)methyl)-3-methylpiperazin-1-yl)methyl)-2′-oxospiro[cyclopropane-1,3′-indolin]-1′-yl)piperidine-2,6-dione]",2,2.5
"CNc1ccn(-c2ccnc3c2cc([C@H](C)N2CC=C(c4c(C)cc(C(=O)N(C)c5ccc(C6CCN(Cc7ccc8c(c7)n(C)c(=O)n8[C@H]7CCC(=O)NC7=O)CC6)cc5)cc4F)CC2)n3C)c(=O)c1 (single isomer, unassigned) [Example 3u226]",0.2,0.05
"CNc1cc(=O)n(-c2ccnc3c2cc([C@H](C)N2CC=C(c4c(C)cc(C(=O)N5CCC(CN6CCN(Cc7ccc8c(c7)C7(CC7)C(=O)N8[C@@H]7CCC(=O)NC7=O)CC6)CC5)cc4F)CC2)n3C)cc1F (single isomer, unassigned) [Example 3u68]",7.8,1
"CNc1ccn(-c2ccnc3c2cc(CN2CCC(c4c(F)cc(C(=O)N5CCC(CN6CCN(Cc7ccc8c(c7)C7(CC7)C(=O)N8[C@@H]7CCC(=O)NC7=O)C[C@@H]6C)CC5)cc4F)CC2)n3C)c(=O)c1 (single isomer, unassigned) [Example 3u224]",1.5,1.3
"CNc1ccn(-c2ccnc3c2cc([C@H](C)N2CCC(c4ccc(C(=O)N5CCC(CN6CCN(Cc7ccc8c(c7)C7(CC7)C(=O)N8[C@H]7CCC(=O)NC7=O)C[C@@H]6C)CC5)cc4)CC2)n3C)c(=O)c1 (single isomer, unassigned) [Example 3u6]",19.3,0.7
"CNc1cc(=O)n(-c2ccnc3c2cc([C@H](C)N2CC=C(c4c(F)cc(C(=O)N5CCC(CN6CCN(Cc7ccc8c(c7)C(C)(C)C(=O)N8C7CCC(=O)NC7=O)C[C@@H]6C)CC5)cc4F)CC2)n3C)cc1F (stereo partly drawn) [Example 3u9, 3-(5-(((S)-4-((1-(3,5-difluoro-4-(1-((S)-1-(4-(5-fluoro-4-(methylamino)-2-oxopyridin-1 (2H)-yl)-1-methyl-1H-pyrrolo[2,3-b]pyridin-2-yl)ethyl)-1,2,3,6-tetrahydropyridin-4-yl)benzoyl)-piperidin-4-yl)methyl)-3-methylpiperazin-1-yl)methyl)-3,3-dimethyl-2-oxoindolin-1-yl)piperidine-2,6-dione]",4.9,3.8
"CNc1cc(=O)n(-c2ccnc3c2cc([C@H](C)N2CC=C(c4c(F)cc(C(=O)N5CCC(CN6CCN(Cc7ccc8c(c7)n(C)c(=O)n8C7CCC(=O)NC7=O)CC6)CC5)cc4F)CC2)n3C)cc1F (mixture of isomers) [Example 3u51, 3-(5-((4-((1-(3,5-difluoro-4-(1-((S)-1-(4-(5-fluoro-4-(methylamino)-2-oxopyridin-1 (2H)-yl)-1-methyl-1H-pyrrolo[2,3-b]pyridin-2-yl)ethyl)-1,2,3,6-tetrahydropyridin-4-yl)benzoyl)piperidin-4-yl)methyl)piperazin-1-yl)methyl)-3-methyl-2-oxo-2,3-dihydro-1H-benzo[d]imidazol-1-yl)piperidine-2,6-dione]",1.9,1.8
"Cc1cc(C(=O)N2CCC(CN3CCN(Cc4cc5c(cc4F)n(C4CCC(=O)NC4=O)c(=O)n5C4CC4)CC3)CC2)cc(F)c1C1=CCN([C@@H](C)c2cc3c(-n4ccc5c(c4=O)CCN5)ccnc3n2C)CC1 (stereo partly drawn) [Example 3u146, 3-(3-cyclopropyl-6-fluoro-5-((4-((1-(3-fluoro-5-methyl-4-(1-((S)-1-(1-methyl-4-(4-oxo-1,2,3,4-tetrahydro-5H-pyrrolo[3,2-c]pyridin-5-yl)-1H-pyrrolo[2,3-b]pyridin-2-yl)ethyl)-1,2,3,6-tetrahydropyridin-4-yl)benzoyl)piperidin-4-yl)methyl)piperazin-1-yl)methyl)-2-oxo-2,3-dihydro-1H-benzo[d]imidazol-1-yl)piperidine-2,6-dione]",1.4,1.7
"CNc1ccn(-c2ccnc3c2cc(CN2CCC(c4c(F)cc(C(=O)N(C)c5ccc(C6CCN(Cc7ccc8c(c7)n(C)c(=O)n8C7CCC(=O)NC7=O)CC6)cc5)cc4F)CC2)n3C)c(=O)c1 (stereo not drawn) [Example 3u244, N-(4-(1-((1-(2,6-dioxopiperidin-3-yl)-3-methyl-2-oxo-2,3-dihydro-1H-benzo[d]imidazol-5-yl)methyl)piperidin-4-yl)phenyl)-3,5-difluoro-N-methyl-4-(1-((1-methyl-4-(4-(methylamino)-2-oxopyridin-1 (2H)-yl)-1H-pyrrolo[2,3-b]pyridin-2-yl)methyl)piperidin-4-yl)benzamide]",0.3,0.1
